From US20260344661A1, “USE OF AN ALKYLETHER SULFATE FOR IMPROVING THE EFFICACY OF HERBICIDES” (BASF SE, priority 2022, published 2026)

Columns and labels:
AVEFA (wild oat) = experiment: Greenhouse post-emergence weed control, damage vs untreated (AVEFA); type: in vivo, Avena fatua
Protocol: (§1) A greenhouse study was conducted to evaluate the effect of the alkylether sulfates of formula (I) and other adjuvants on the weed control efficacy of glufosinate. Seedlings of grass plants (AVEFA, ECHCG, DIGSA and SETVI) and broadleaf weeds (KCHSC, CHEAL, AMAPA, AMATA and ABUTH) were grown to a height of 3 to 20 cm, depending on the plant habit in 10×10×10 cm pots filled with sandy planting soil (Limburgerhof soil). The weeds were treated with postemergence applications of glufosinate ammonium at the respective application rates given in the following tables, either alone or combined with various amounts of the respective adjuvants.
(§2) For this, the herbicide formulation and the respective adjuvant were introduced into tap water to obtain the spray liquor. […] The spray liquor was then applied to the plant a spray volume of 200 l/ha using a sprayer (XR Teejet 110015).
(§3) The test period extended over 21 days. During this time, the plants were tended, and their response to the treatments with active compound was evaluated.
(§4) The evaluation for the damage caused by the chemical compositions was carried out using a scale from 0 to 100%, compared to the untreated control plants. Here, 0 means no damage and 100 means complete destruction of the plants.
(§5) The plants used in the greenhouse experiments belonged to the following species:
(§6) The results are summarized in the following tables 1 to 15 that show the applied doses of the individual actives as gram of active ingredient per hectare (g ai/ha), the herbicidal activity of the individual […]

[1] = system: Øgras (average value of AVEFA, ECHCG, DIGSA and SETVI); experiment: Greenhouse post-emergence weed control, average over grasses (Øgras); type: in vivo
Protocol: as §1, §2, §3, §4, §5, §6

SETVI (green foxtail) = experiment: Greenhouse post-emergence weed control, damage vs untreated (SETVI); type: in vivo, Setaria viridis
Protocol: as §1, §2, §3, §4, §5, §6

CHEAL (lambsquarter) = experiment: Greenhouse post-emergence weed control, damage vs untreated (CHEAL); type: in vivo, Chenopodium album
Protocol: as §1, §2, §3, §4, §5, §6

TRZAS (spring wheat) = experiment: Greenhouse post-emergence weed control, damage vs untreated (TRZAS); type: in vivo, Soft wheat (spring)
[2] = system: AMATA (common water hemp); experiment: Greenhouse post-emergence weed control, damage vs untreated (AMATA); type: in vivo, Amaranthus tuberculatus; settings: 20 DAT
Protocol: as §1, §2, §3, §4, §5
(§7) The results are summarized in the following tables 1 to 15 that show the applied doses of the individual actives as gram of active ingredient per hectare (g ai/ha), the herbicidal activity of the individual actives and of their combinations in post-emergence application assessed 14 and 28 day after treatment (DAT), respectively.

ABUTH (velvetleaf) = experiment: Greenhouse post-emergence weed control, damage vs untreated (ABUTH); type: in vivo, Abutilon theophrasti; settings: 20 DAT
Protocol: as §1, §2
[…] During this time, the plants were tended, and their response to the treatments with active compound was evaluated.
as §4
(§8) The plants used in the greenhouse experiments belonged to the following species: […]

DIGSA (large crabgrass) = experiment: Greenhouse post-emergence weed control, damage vs untreated (DIGSA); type: in vivo, Digitaria sanguinalis; settings: 20 DAT
Protocol: as §1, §2, §3, §4, §8

KCHSC (kochia) = experiment: Greenhouse post-emergence weed control, damage vs untreated (KCHSC); type: in vivo, Kochia scoparia; settings: 20 DAT
Protocol: as §1, §2, §3, §4, §8

ECHCG (barnyardgrass) = experiment: Greenhouse post-emergence weed control, damage vs untreated (ECHCG); type: in vivo, Echinochloa crus-galli
Protocol: as §1, §2, §3, §4, §5, §6

AMAPA (palmer amaranth) = experiment: Greenhouse post-emergence weed control, damage vs untreated (AMAPA); type: in vivo, Amaranthus palmeri; settings: 20 DAT
Protocol: as §1, §2, §3, §4, §5, §7

HORVS (spring barley) = experiment: Greenhouse post-emergence weed control, damage vs untreated (HORVS); type: in vivo; settings: 20 DAT
[3] = system: ØBLV = Σ % activity (CHEAL + KCHSC + AMATU + ABUTH)/4; experiment: Greenhouse post-emergence weed control, average over broadleaf weeds (ØBLV, Tables 16-20); type: in vivo; settings: average of CHEAL
AMATU (tall waterhemp) = experiment: Greenhouse post-emergence weed control, damage vs untreated (AMATU); type: in vivo, Amaranthus tuberculatus; settings: 20 DAT
Protocol: as §1, §2, §3, §4, §5, §7

[4] = 5 g ai/ha L-glufosinate (so in the source), no adjuvant
[5] = 37.5 g ai/ha L-glufosinate, adjuvant g ai/ha: none (CE1-B), 56 (IE2-A), 62.125 (IE2-B), 51.625 (CE2-F)
[6] = 150 g ai/ha L-glufosinate, adjuvant g ai/ha: none (CE1-B), 223 (IE2-A), 248.5 (IE2-B), 206.5 (CE2-F)
[7] = 300 g ai/ha L-glufosinate, adjuvant g ai/ha: none (CE1-B), 446 (IE2-A), 497 (IE2-B), 413 (CE2-F)
[8] = g ai/ha: 42.375 solo (CE1-C), 42.375 + 66.97 combined (IE3-A/B/C, CE2-J)
[9] = g ai/ha: 84.75 solo (CE1-C), 84.75 + 133.94 combined (IE3-A/B/C, CE2-J)
[10] = g ai/ha: 169.5 solo (CE1-C), 169.5 + 267.89 combined (IE3-A/B/C, CE2-J)
[11] = g ai/ha: 339 solo (CE1-C), 339 + 535.77 combined (IE3-A/B/C, CE2-J)

## CP(=O)(O)CC[C@H](N)C(=O)O.N [CE1-B, ammonium (2S)-2-amino-4-(methylphosphinato)butyric acid]
AVEFA (wild oat); [4]
  % activity: 5%
AVEFA (wild oat); [5]
  % activity: 0%
AVEFA (wild oat); [6]
  % activity: 10%
AVEFA (wild oat); [7]
  % activity: 20%
AVEFA (wild oat); [8]
  % activity AVEFA: 3%
AVEFA (wild oat); [9]
  % activity AVEFA: 3%
AVEFA (wild oat); [10]
  % activity AVEFA: 5%
AVEFA (wild oat); [11]
  % activity AVEFA: 8%
[1]; [4]
  % activity (Øgras): 26%
[1]; [5]
  % activity (Øgras): 21%
[1]; [6]
  % activity (Øgras): 40%
[1]; [7]
  % activity (Øgras): 54%
SETVI (green foxtail); [4]
  % activity: 98%
SETVI (green foxtail); [5]
  % activity: 85%
SETVI (green foxtail); [6]
  % activity: 98%
SETVI (green foxtail); [7]
  % activity: 95%
CHEAL (lambsquarter); [4]
  % activity: 0%
CHEAL (lambsquarter); [5]
  % activity: 0%
CHEAL (lambsquarter); [6]
  % activity: 0%
CHEAL (lambsquarter); [7]
  % activity: 15%
CHEAL (lambsquarter); [8]
  % activity CHEAL: 0%
CHEAL (lambsquarter); [9]
  % activity CHEAL: 0%
CHEAL (lambsquarter); [10]
  % activity CHEAL: 5%
CHEAL (lambsquarter); [11]
  % activity CHEAL: 10%
TRZAS (spring wheat); [8]
  % activity TRZAS: 0%
TRZAS (spring wheat); [9]
  % activity TRZAS: 0%
TRZAS (spring wheat); [10]
  % activity TRZAS: 5%
TRZAS (spring wheat); [11]
  % activity TRZAS: 5%
[2]; [4]
  % activity: 95%
[2]; [5]
  % activity: 20%
[2]; [6]
  % activity: 98%
[2]; [7]
  % activity: 98%
ABUTH (velvetleaf); [4]
  % activity: 10%
ABUTH (velvetleaf); [8]
  % activity ABUTH: 5%
ABUTH (velvetleaf); [10]
  % activity ABUTH: 30%
ABUTH (velvetleaf); [11]
  % activity ABUTH: 68%
ABUTH (velvetleaf); [5]
  % activity: 10%
ABUTH (velvetleaf); [6]
  % activity: 30%
ABUTH (velvetleaf); [7]
  % activity: 60%
DIGSA (large crabgrass); [4]
  % activity: 0%
DIGSA (large crabgrass); [8]
  % activity DIGSA: 5%
DIGSA (large crabgrass); [9]
  % activity DIGSA: 15%
DIGSA (large crabgrass); [10]
  % activity DIGSA: 55%
DIGSA (large crabgrass); [11]
  % activity DIGSA: 70%
DIGSA (large crabgrass); [5]
  % activity: 0%
DIGSA (large crabgrass); [6]
  % activity: 30%
DIGSA (large crabgrass); [7]
  % activity: 40%
KCHSC (kochia); [4]
  % activity: 5%
KCHSC (kochia); [8]
  % activity KCHSC: 3%
KCHSC (kochia); [9]
  % activity KCHSC: 3%
KCHSC (kochia); [10]
  % activity KCHSC: 28%
KCHSC (kochia); [11]
  % activity KCHSC: 35%
KCHSC (kochia); [5]
  % activity: 0%
KCHSC (kochia); [6]
  % activity: 5%
KCHSC (kochia); [7]
  % activity: 10%
ECHCG (barnyardgrass); [4]
  % activity: 0%
ECHCG (barnyardgrass); [5]
  % activity: 0%
ECHCG (barnyardgrass); [6]
  % activity: 20%
ECHCG (barnyardgrass); [7]
  % activity: 60%
ECHCG (barnyardgrass); [8]
  % activity ECHCG: 0%
ECHCG (barnyardgrass); [9]
  % activity ECHCG: 3%
ECHCG (barnyardgrass); [10]
  % activity ECHCG: 3%
ECHCG (barnyardgrass); [11]
  % activity ECHCG: 20%
AMAPA (palmer amaranth); [4]
  % activity: 60%
AMAPA (palmer amaranth); [5]
  % activity: 98%
AMAPA (palmer amaranth); [6]
  % activity: 98%
AMAPA (palmer amaranth); [7]
  % activity: 98%
HORVS (spring barley); [8]
  % activity HORVS: 0%
HORVS (spring barley); [9]
  % activity HORVS: 0%
HORVS (spring barley); [10]
  % activity HORVS: 0%
HORVS (spring barley); [11]
  % activity HORVS: 10%
[3]; [8]
  % activity (ØBLV): 8%
[3]; [9]
  % activity (ØBLV): 26%
[3]; [10]
  % activity (ØBLV): 27%
[3]; [11]
  % activity (ØBLV): 53%
AMATU (tall waterhemp); [8]
  % activity AMATU: 23%
AMATU (tall waterhemp); [9]
  % activity AMATU: 75%
AMATU (tall waterhemp); [10]
  % activity AMATU: 45%
AMATU (tall waterhemp); [11]
  % activity AMATU: 97%
